Experimental data taken from ChEMBL document CHEMBL5241112, “Insights into the recent progress in the medicinal chemistry of pyranopyrimidine analogs” (RSC Med Chem, 2022).
pIC50: −log10 of the molar value. Converted amounts (≈) assume the structure as drawn.

Assays:
[1] = species on record: Homo sapiens; assay: Anticoagulant activity in human plasma assessed as activated partial thromboplastin time at 1000 ug/ml incubated for 4 mins; type: functional; conditions: dose 1000 µg/ml
[2] = Antioxidant activity assessed as DPPH radical scavenging activity incubated for 20 mins by spectrophotometric analysis; type: functional; design: concentration or dose not given beside the values
[3] = Antioxidant activity assessed as hydroxyl radical scavenging activity incubated for 5 mins by spectrophotometric analysis; type: functional; design: concentration or dose not given beside the values
[4] = test system: Mycobacterium tuberculosis; assay: Antitubercular activity against Mycobacterium tuberculosis H37Rv assessed as bacterial growth inhibition incubated for 24 hrs by MABA assay; type: functional
[5] = test system: HCT-116; assay: Anticancer activity against human HCT-116 cells assessed as reduction in cell viability incubated for 96 hrs by MTT assay; type: functional, cell-based; conditions: HCT-116, 96 h
[6] = test system: HepG2; assay: Anticancer activity against human HepG2 cells assessed as reduction in cell viability; type: functional, cell-based
[7] = test system: MCF7; assay: Anticancer activity against human MCF7 cells assessed as reduction in cell viability; type: functional, cell-based
[8] = test system: HCT-116; assay: cells; conditions: Homo sapiens
[9] = test system: Bacillus cereus; assay: Antimicrobial activity against Bacillus cereus ATCC14579 assessed as diameter of inhibition zone at 20 mg/ml incubated for 24 hrs by disk diffusion method; type: functional; conditions: read-out: DIZ
[10] = test system: Staphylococcus aureus; assay: Antimicrobial activity against Staphylococcus aureus NCTC7447 assessed as diameter of inhibition zone at 20 mg/ml incubated for 24 hrs by disk diffusion method; type: functional; conditions: read-out: DIZ
[11] = test system: Klebsiella pneumoniae; assay: Antimicrobial activity against Klebsiella pneumoniae UC57 assessed as diameter of inhibition zone at 20 mg/ml incubated for 24 hrs by disk diffusion method; type: functional; conditions: read-out: DIZ
[12] = test system: Pseudomonas aeruginosa; assay: Antimicrobial activity against Pseudomonas aeruginosa ATCC 27853 assessed as diameter of inhibition zone at 20 mg/ml incubated for 24 hrs by disk diffusion method; type: functional; conditions: read-out: DIZ
[13] = test system: Escherichia coli; assay: Antimicrobial activity against Escherichia coli ATCC 14169 assessed as diameter of inhibition zone at 20 mg/ml incubated for 24 hrs by disk diffusion method; type: functional; conditions: read-out: DIZ
[14] = Inhibition of porcine pancreatic alpha-amylase preincubated for 10 mins followed by substrate starch addition and measured after 10 mins by colorimetric analysis; design: species or system Sus scrofa
[15] = test system: Staphylococcus aureus; assay: Antibacterial activity against Staphylococcus aureus assessed as diameter of inhibition zone; type: functional
[16] = test system: Bacillus subtilis; assay: Antibacterial activity against Bacillus subtilis assessed as diameter of inhibition zone; type: functional
[17] = test system: Salmonella typhimurium; assay: Antibacterial activity against Salmonella typhimurium assessed as diameter of inhibition zone; type: functional, Salmonella enterica subsp. enterica serovar Typhimurium
[18] = target: Alpha-glucosidase (Saccharomyces cerevisiae S288c, UniProt P53341+P38158+P07265); assay: Inhibition of Saccharomyces cerevisiae alpha-glucosidase preincubated for 5 mins followed by PNP-GLUC substrate addition and measured after 20 mins by spectroscopic analysis; type: protein assay
[19] = target: Albumin (Bos taurus, UniProt P02769); assay: […] bovine serum albumin denaturation incubated for 23 mins by UV-Visible spectrophotometry
[20] = test system: Escherichia coli; assay: Antibacterial activity against Escherichia coli assessed as diameter of inhibition zone; type: functional

Albumin, sequence (P02769 whole entry): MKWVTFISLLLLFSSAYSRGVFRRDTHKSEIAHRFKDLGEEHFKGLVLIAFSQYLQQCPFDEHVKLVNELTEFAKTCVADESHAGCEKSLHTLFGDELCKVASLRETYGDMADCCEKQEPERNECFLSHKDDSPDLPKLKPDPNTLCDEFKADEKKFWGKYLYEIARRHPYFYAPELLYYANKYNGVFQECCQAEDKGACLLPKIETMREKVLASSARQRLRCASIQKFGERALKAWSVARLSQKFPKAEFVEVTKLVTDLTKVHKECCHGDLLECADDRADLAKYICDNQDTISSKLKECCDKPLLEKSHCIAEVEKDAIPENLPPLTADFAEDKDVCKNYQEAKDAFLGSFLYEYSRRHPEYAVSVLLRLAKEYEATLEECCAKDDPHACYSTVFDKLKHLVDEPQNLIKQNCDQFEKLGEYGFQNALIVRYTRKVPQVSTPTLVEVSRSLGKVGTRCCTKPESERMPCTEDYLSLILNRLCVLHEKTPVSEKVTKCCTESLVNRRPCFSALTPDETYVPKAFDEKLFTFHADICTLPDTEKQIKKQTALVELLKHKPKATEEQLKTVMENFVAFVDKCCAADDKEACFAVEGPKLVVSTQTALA

## CC1(C)CC(=O)C2=C(C1)Oc1ncn3ncnc3c1C2c1ccccc1 (stereo unspecified)
[1]
  Time: 59.4 s

## COc1ccc(C2c3[nH]c(=O)[nH]c(=O)c3Oc3c2c(=O)oc2ccccc32)c(O)c1 (stereo unspecified)
[2]
  Activity: 59.1%
[3]
  Activity: 54.3%

## O=c1nc2c3c([nH]1)Oc1c(Cl)cc(Cl)cc1C3c1c(c3ccccc3oc1=O)O2 (stereo unspecified)
[4]
  MIC: 50 mg/L (≈ 117 µM)

## CN[C@@H]1C[C@H]2O[C@@](C)([C@@H]1OC)n1c3ccccc3c3c4c(c5c6ccccc6n2c5c31)C(=O)NC4 [STAUROSPORINE]
[5]
  pIC50: 5.16

## COc1ccc(C2c3c([nH]c(=O)[nH]c3=O)Oc3ncn(-c4ccc(C)cc4)c(=N)c32)cc1 (stereo unspecified)
[6]
  pIC50: 5.68
[7]
  pIC50: 5.61
[8]
  pIC50: 5.58

## O=c1nc2c3c([nH]1)Oc1ccc(Cl)cc1C3c1c(c3ccccc3oc1=O)O2 (stereo unspecified)
[4]
  MIC: 6.25 mg/L (≈ 15.9 µM)

## COc1ccccc1C1C(C#N)=C(N)Oc2[nH]c(=O)[nH]c(=O)c21 (stereo unspecified)
[9]
  zone of inhibition at 20000 µg/mL: 11 mm
[10]
  zone of inhibition at 20000 µg/mL: 15 mm
[11]
  zone of inhibition at 20000 µg/mL: 13 mm
[12]
  zone of inhibition at 20000 µg/mL: 7 mm
[13]
  zone of inhibition at 20000 µg/mL: 9 mm

## CCO/C=N/C1=C(C#N)C(c2cccs2)c2c([nH]c(=O)[nH]c2=O)O1 (stereo unspecified)
[5]
  pIC50: 5.54

## COc1ccc(-n2cnc3c(c2=N)C(c2ccccc2)C2=C(CC(C)(C)CC2=O)O3)cc1 (stereo unspecified)
[1]
  Time: 57 s

## CC1(C)CC(=O)C2=C(C1)Oc1ncn3nc(CC#N)nc3c1C2c1ccccc1 (stereo unspecified)
[1]
  Time: 63.4 s

## N#CC1=C(N)Oc2[nH]c(=O)[nH]c(=O)c2C1c1ccccc1[N+](=O)[O-] (stereo unspecified)
[9]
  zone of inhibition at 20000 µg/mL: 10 mm
[10]
  zone of inhibition at 20000 µg/mL: 5 mm
[11]
  zone of inhibition at 20000 µg/mL: 6 mm
[12]
  zone of inhibition at 20000 µg/mL: 9 mm
[13]
  zone of inhibition at 20000 µg/mL: 11 mm

## COc1ccc(C2c3c([nH]c(=O)[nH]c3=O)Oc3ncn(-c4ccccc4N)c(=N)c32)cc1 (stereo unspecified)
[6]
  pIC50: 5.68
[7]
  pIC50: 5.61
[8]
  pIC50: 5.58

## C[C@H]1O[C@H](O[C@H]2[C@H](O)[C@@H](O)[C@@H](O[C@H]3[C@H](O)[C@@H](O)C(O)O[C@@H]3CO)O[C@@H]2CO)[C@H](O)[C@@H](O)[C@@H]1N[C@H]1C=C(CO)[C@@H](O)[C@H](O)[C@H]1O (stereo partly specified) [ACARBOSE]
[14]
  pIC50: 6.67

## COc1ccc(C2C(C#N)=C(NC(C)=O)Oc3[nH]c(=O)[nH]c(=O)c32)cc1 (stereo unspecified)
[6]
  pIC50: 5.68
[7]
  pIC50: 5.61
[8]
  pIC50: 5.58

## N#CC1=C(N)Oc2[nH]c(=O)[nH]c(=O)c2C1c1ccccc1 (stereo unspecified)
[9]
  zone of inhibition at 20000 µg/mL: 12 mm
[10]
  zone of inhibition at 20000 µg/mL: 8 mm
[11]
  zone of inhibition at 20000 µg/mL: 5 mm
[12]
  zone of inhibition at 20000 µg/mL: 14 mm
[13]
  zone of inhibition at 20000 µg/mL: 13 mm
[15]
  diameter of the inhibition zone (DIZ): 8 mm
[16]
  diameter of the inhibition zone (DIZ): 10 mm
[17]
  diameter of the inhibition zone (DIZ): 10 mm

## O=c1nc2c3c([nH]1)Oc1cc(O)ccc1C3c1c(c3ccccc3oc1=O)O2 (stereo unspecified)
[4]
  MIC: 50 mg/L (≈ 134 µM)

## N#CC1=C(N)Oc2[nH]c(=O)[nH]c(=O)c2C1c1cccc(O)c1 (stereo unspecified)
[9]
  zone of inhibition at 20000 µg/mL: 10 mm
[10]
  zone of inhibition at 20000 µg/mL: 15 mm
[11]
  zone of inhibition at 20000 µg/mL: 8 mm
[12]
  zone of inhibition at 20000 µg/mL: 15 mm
[13]
  zone of inhibition at 20000 µg/mL: 14 mm

## O=c1nc2c3c([nH]1)Oc1c(O)cccc1C3c1c(c3ccccc3oc1=O)O2 (stereo unspecified)
[4]
  MIC: 50 mg/L (≈ 134 µM)

## O=c1[nH]c2c(c(=O)[nH]1)Oc1c(c(=O)oc3ccccc13)C2c1ccccc1O (stereo unspecified)
[2]
  Activity: 59.1%
[3]
  Activity: 54.3%

## COc1ccc2c(-c3nc4c5c(ncn4n3)OC3=C(C(=O)CC(C)(C)C3)C5c3ccccc3)cc(=O)oc2c1 (stereo unspecified)
[1]
  Time: 55.1 s

## Cc1cccc(-n2cnc3c(c2=N)C(c2ccccc2)C2=C(CC(C)(C)CC2=O)O3)c1 (stereo unspecified)
[1]
  Time: 53.7 s

## O=C(C1=C(c2ccccc2O)Oc2[nH]c(=S)[nH]c(=O)c2C1c1ccc(O)cc1)N1CCCCC1 (stereo unspecified)
[18]
  IC50: 3553 µM
[19]
  pIC50: 4.70
[14]
  pIC50: 4.57

## CN[C@@H]1[C@H](O[C@H]2[C@H](O[C@H]3[C@H](O)[C@@H](O)[C@H](N=C(N)N)[C@@H](O)[C@@H]3N=C(N)N)O[C@@H](C)[C@]2(O)C=O)O[C@@H](CO)[C@H](O)[C@H]1O [STREPTOMYCIN]
[9]
  zone of inhibition at 20000 µg/mL: 16 mm
[10]
  zone of inhibition at 20000 µg/mL: 18 mm
[11]
  zone of inhibition at 20000 µg/mL: 18 mm
[12]
  zone of inhibition at 20000 µg/mL: 16 mm
[13]
  zone of inhibition at 20000 µg/mL: 18 mm
[15]
  diameter of the inhibition zone (DIZ): 16 mm
[16]
  diameter of the inhibition zone (DIZ): 18 mm
[20]
  diameter of the inhibition zone (DIZ): 20 mm
[17]
  diameter of the inhibition zone (DIZ): 18 mm
[4]
  MIC: 6.25 mg/L (≈ 10.7 µM)

## N#CC1=C(N)Oc2[nH]c(=O)[nH]c(=O)c2C1c1ccccc1Cl (stereo unspecified)
[15]
  diameter of the inhibition zone (DIZ): 20 mm
[16]
  diameter of the inhibition zone (DIZ): 18 mm
[20]
  diameter of the inhibition zone (DIZ): 14 mm
[17]
  diameter of the inhibition zone (DIZ): 18 mm

## O=c1nc2c3c([nH]1)Oc1ccc4ccccc4c1C3c1c(c3ccccc3oc1=O)O2 (stereo unspecified)
[4]
  MIC: 25 mg/L (≈ 61.2 µM)
